Efficacy data for two compounds are collected here from US9686985B2, “Fungicide N-cycloalkyl-N-bicyclicmethylene-carboxamide derivatives” (BAYER INTELLECTUAL PROPERTY GMBH, priority 2012, dated 2017).

The subject of test [1] is Septoria tritici. In words: Example K: in vivo preventive test on Septoria tritici (wheat). As to conditions: table K, 500 ppm, evaluated 21 days after inoculation. How it is done:
(§1) Example K: In Vivo Preventive Test on Septoria tritici (Wheat) [table] To produce a suitable preparation of active compound, 1 part by weight of active compound or active compound combination is mixed with the stated amounts of solvent and emulsifier, and the concentrate is diluted with water to the desired concentration. To test for preventive activity, young plants are sprayed with the preparation of active compound or active compound combination at the stated rate of application. After the spray coating has been dried, the plants are sprayed with a spore suspension of Septoria The plants remain for 48 hours in an incubation cabinet at approximately 20° C. and a relative atmospheric humidity of approximately 100% and afterwards for 60 hours at approximately 15° C. in a translucent incubation cabinet at a relative atmospheric humidity of approximately 100%. The plants are placed in the greenhouse at a temperature of approximately 15° C. and a relative atmospheric humidity of approximately 80%.

The subject of test [2] is Leptosphaeria nodorum. In words: Example J: in vivo preventive test on Leptosphaeria nodorum (wheat). As to conditions: table J, 500 ppm, evaluated 8 days after inoculation. Here is the method:
as §1, with “J:” for “K:”, “Leptosphaeria nodorum Test” for “Septoria tritici”, “Leptosphaeria nodorum.” for “Septoria”, “approximately” for “approximately 100% and afterwards for 60 hours at approximately 15° C. in a translucent incubation cabinet at a relative atmospheric humidity of approximately”, “22°” for “15°”

Test [3] concerns Fusarium nivale (var. majus). The test can be described thus: Example P: in vivo preventive test on Fusarium nivale (wheat). The settings on record: table P, 500 ppm, evaluated 5 days after inoculation. How it is done:
Example P: In Vivo Preventive Test on Fusarium nivale (Wheat) [table] To produce a suitable preparation of active compound, 1 part by weight of active compound or active compound combination is mixed with the stated amounts of solvent and emulsifier, and the concentrate is diluted with water to the desired concentration. To test for preventive activity, young plants are sprayed with the preparation of active compound or active compound combination at the stated rate of application. After the spray coating has been dried, the plants are slightly injured by using a sandblast and afterwards they are sprayed with a conidia suspension of Fusarium nivale (var. majus). The plants are placed in the greenhouse under a translucent incubation cabinet at a temperature of approximately 10° C. and a relative atmospheric humidity of approximately 100%.

For test [4], the system named is Sphaerotheca fuliginea. In words: Example A: in vivo preventive test on Sphaerotheca fuliginea (cucumber). How it is done:
Example A: In Vivo Preventive Test on Sphaerotheca fuliginea (Cucumber) [table] To produce a suitable preparation of active compound, 1 part by weight of active compound is mixed with the stated amounts of solvent and emulsifier, and the concentrate is diluted with water to the desired concentration. To test for preventive activity, young plants are sprayed with the preparation of active compound at the stated rate of application. One day after this treatment, the plants are inoculated with an aqueous spore suspension of Sphaerotheca fuliginea. Then the plants are placed in a greenhouse at approximately 23° C. and a relative atmospheric humidity of approximately 70%.

The test system of test [5] is Sphaerotheca fuliginea. In words: Example B: in vivo preventive test on Sphaerotheca fuliginea (powdery mildew on cucurbits). The settings on record: table B; 500 ppm; gherkin plants; grading 12 days after contamination. An outline of the steps:
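Gherkin plants (Vert petit de Paris) sprayed with compound at the Z11 cotyledon stage, then inoculated 24 h later with Sphaerotheca fuliginea spores (100 000 spores per mL). Kept at about 20° C., 70-80% relative humidity; % efficacy versus solvent-treated controls graded 12 days after inoculation.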

The test system of test [6] is Puccinia triticina. The test can be described thus: Example O: in vivo preventive test on Puccinia triticina (wheat). The settings on record: table O, 500 ppm, evaluated 8 days after inoculation. How it is done: as §1, with “O:” for “K:”, “Puccinia triticina” for “Septoria tritici”, “Puccinia triticina.” for “Septoria”, “approximately” for “approximately 100% and afterwards for 60 hours at approximately 15° C. in a translucent incubation cabinet at a relative atmospheric humidity of approximately”, “20°” for “15°”

Test [7] has as its system Uromyces appendiculatus. The test can be described thus: Example G: in vivo preventive test on Uromyces appendiculatus (bean rust). The settings on record: table G1; 500 ppm; bean plants; grading 11 days after contamination. The gist of the method:
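Bean plants ("Saxa") at the 2-leaf stage, grown at 24° C., sprayed preventively with active ingredient, then inoculated 24 h later with U. appendiculatus spores (150 000 spores per mL). Incubated 24 h at 20° C./100% RH, then 10 days at 20° C./70-80% RH; % efficacy graded 11 days after contamination versus solvent-treated controls.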

Test [8] concerns Botrytis cinerea. The test can be described thus: Example H: in vivo preventive test on Botrytis cinerea (beans). The settings on record: table H, 100 ppm, lesion size 2 days after inoculation. Here is the method:
Example H: In Vivo Preventive Test on Botrytis cinerea (Beans)
To produce a suitable preparation of active compound, 1 part by weight of active compound is mixed with the stated amounts of solvent and emulsifier, and the concentrate is diluted with water to the desired concentration.
To test for preventive activity, young plants are sprayed with the preparation of active compound. After the spray coating has dried on, 2 small pieces of agar covered with growth of Botrytis cinerea are placed on each leaf. The inoculated plants are placed in a darkened chamber at 20° C. and a relative atmospheric humidity of 100%.
2 days after the inoculation, the size of the lesions on the leaves is evaluated. 0% means an efficacy which corresponds to that of the untreated control, while an efficacy of 100% means that no disease is observed.

Setting [9] is: table A1, 100 ppm of active ingredient, evaluated 7 days after inoculation.
[10] abbreviates: table A2, dose 100 ppm, comparison with WO-2010/086311 compounds.

For the compound `CC(C1CCCc2ccccc21)N(C(=O)c1c(C(F)F)nn(C)c1F)C1CC1` (stereo not drawn) [I.23], the Efficacy in test [1] worked out at 100%; in test [2], 100%; in test [3], 100%; in test [4] (setting [9]) it was 94%; in test [4] (setting [10]), 94%; in test [5] it was 100%. Also, the Efficacy came out at 75% in test [6], 100% in test [7] and 99% in test [8].
As for `Cn1nc(C(F)F)c(C(=O)N(CC2CC(C)(C)Oc3ccccc32)C2CC2)c1F` (stereo not drawn) [I.33], the Efficacy amounted to 100% in test [1]; 100% in test [2]; 100% in test [3]; 94% in test [4] (setting [9]); 94% in test [4] (setting [10]); 100% in test [5]. In addition, the Efficacy in test [6] is recorded as 100%; in test [7] it was 100%; in test [8] it was 96%.
